“And” between values parts separate entries of the source, which are not always exact repeats. Equal entries are not always repeated.

For the data set, the system named is Rattus norvegicus.
The mark [1] stands for this setting: acute, oral, gavage, Sprague-Dawley.
Where [2] appears, read: developmental, oral, gavage, Sprague-Dawley.
Setting [3] is: reproduction developmental, oral, gavage, F, Sprague-Dawley.
The mark [4] stands for this setting: subchronic, oral, gavage, Sprague-Dawley.
Where [5] appears, read: reproduction developmental, duration: 41 days, oral, gavage, F, Crj:CD.
The mark [6] stands for this setting: reproduction developmental, duration: 41 days, oral, gavage, M, Crj:CD.

In the case of `C=C(C)COc1ccccc1O` [2-[(2-methyl-2-propenyl)oxy]phenol], under setting [1], the LD50 (usually the dose expected to kill half of the subjects tested) was 2840 mg/kg and 2940 mg/kg and 3220 mg/kg. Moreover, the NOAEL (commonly the highest tested level that showed no adverse finding) (reproduction developmental, oral, gavage, Sprague-Dawley) is over 720 mg/kg-day.
As to `Cc1cccc(C#N)c1` [3-Methylbenzonitrile], the LD50 (acute, oral, Sprague-Dawley) amounted to 3000 mg/kg.
The molecule `C=C(C)C(=O)OCC[N+](C)(C)C.[Cl-]` [(2-(Methacryloyloxy)ethyl)trimethylammonium chloride] came in with an LD50 under setting [1] of over 2000 mg/kg. This molecule also yielded an NOAEL (short-term, duration: 28 days, oral, diet, F, Crj:CD) of over 1000 mg/kg-day and an NOAEL (short-term, duration: 28 days, oral, diet, M, Crj:CD) of over 1000 mg/kg-day.
Molecule `CC/C=C\C#N` [(2Z)-2-Pentenenitrile] came in with an LC50 (acute, inhalation, CRL:CD BR) of 2820 mg/m3. Besides, the NOAEL came out at 995 mg/m3 (short-term, duration: 28 days, inhalation, CRL:CD BR); 9.95 mg/m3 (short-term, duration: 28 days, inhalation, F, CRL:CD BR); 9.95 mg/m3 (short-term, duration: 28 days, inhalation, M, CRL:CD BR).
With `O=C(O)CCC(=O)O` [Butanedioic acid], the 50% lethal dose (LD50) was 2260 mg/kg (acute, oral, gavage) and over 8000 mg/kg (acute, oral, gavage, Fischer 344). Besides, under “developmental, injection, intramuscular”, the LOAEL – broadly, the lowest dose or exposure tested at which an adverse effect was seen – turned out to be 500 mg/kg-day.
Regarding `O=C(OCCOCCOC(=O)c1ccccc1)c1ccccc1` [Diethylene glycol dibenzoate], the NOAEL by setting is: (developmental, duration: 38 weeks, oral, diet, Sprague-Dawley) 3300 ppm; (reproduction developmental, duration: 38 weeks, oral, diet, F, Sprague-Dawley) 10000 ppm; (reproduction developmental, duration: 38 weeks, oral, diet, Sprague-Dawley, generation: F0) 10000 ppm.
The molecule `CCCCCCCCCCCCCOC(=O)c1ccccc1C(=O)OCCCCCCCCCCCCC` [Ditridecyl phthalate] gave an LD50 under setting [1] of over 2000 mg/kg. Besides, the NOAEL is, setting by setting: under setting [2], 250 mg/kg-day; under setting [3], 50 mg/kg-day; (reproduction developmental, oral, gavage, M, Sprague-Dawley) 250 mg/kg-day; (reproduction developmental, oral, gavage, Sprague-Dawley, generation: F1) 250 mg/kg-day; under setting [4], 10 mg/kg-day. Under setting [4], this molecule came in with an LOAEL of 50 mg/kg-day.
On to `CC(C)CCCCC(=O)O` [Isooctanoic acid], for which the NOAEL was determined as 800 mg/kg-day under setting [2]; 7500 ppm (reproduction developmental, oral, diet, F, Sprague-Dawley); 7500 ppm (reproduction developmental, oral, diet, Sprague-Dawley, generation: F1); 400 mg/kg-day under setting [3].
In the case of `COCO` [Methoxymethanol], the LD50 (acute, oral, gavage, Crj:CD) was 1270 mg/kg. Moreover, the NOAEL by setting is: (developmental, oral, gavage, Crj:CD) 300 mg/kg-day; under setting [5], 60 mg/kg-day; under setting [6], 12 mg/kg-day; (reproduction developmental, oral, gavage, Crj:CD) 300 mg/kg-day; (reproduction developmental, oral, gavage, F, Crj:CD) 60 mg/kg-day; (reproduction developmental, oral, gavage, M, Crj:CD) 12 mg/kg-day. Further, the LOAEL is, setting by setting: under setting [5], 300 mg/kg-day; under setting [6], 60 mg/kg-day.
As to `CCCCCCCCCCCCOCCCNCCCN` [N1-[3-(Dodecyloxy)propyl]-1,3-propanediamine], the LD50 (acute, oral, gavage) was 378 mg/kg and 299 mg/kg.
`CCCCCCCCCCCCCCCCCCN(C)C` [N,N-Dimethyl-1-octadecanamine] came in with an LD50 (acute, oral, gavage) of 2120 mg/kg.
As to `O[B-](c1ccccc1)(c1ccccc1)c1ccccc1.[Na+]` [Sodium hydroxytriphenylborate], the LD50 under setting [1] amounted to 1240 mg/kg.
Consider `CC(C)CCCCCCOC(=O)c1ccc(C(=O)OCCCCCCC(C)C)c(C(=O)OCCCCCCC(C)C)c1` [Triisononyl trimellitate], for which, for the setting “acute, oral, Sprague-Dawley”, the LD50 was over 10000 mg/kg.
In turn, `CC(C)(C)CC(C)(C)N` [tert-Octylamine] came in with a median lethal dose (LD50) (acute, oral, gavage, CRL:CD BR) of 218 mg/kg.
